According to the METLIN SMRT retention time set (Domingo-Almenara et al. 2019):

assay: gradient 5% acetonitrile 3 min, to 50% in 2 min, to 85% in 15 min, held 3 min, 100 µL/min; details: column: Zorbax Extend-C18 2.1 x 50 mm; eluents: water / acetonitrile, 0.1% formic acid
How it was run: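 Pure standards were analyzed in mixtures of ~100 molecules using HPLC coupled to a quadrupole time-of-flight mass spectrometer, in both positive and negative ionization mode. Separation used a Zorbax Extend-C18 column (2.1 × 50 mm, 1.8 μm) at 100 μL/min, with water and acetonitrile each containing 0.1% formic acid. Dead and dwell volumes were 40 μL and 900 μL, and data were collected over 3 months. Retention time was read from computationally picked adduct peaks, each inspected manually.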

| SMILES | RP-LC retention time [s] |
| --- | --- |
| COc1cccc(S(=O)(=O)N2CCC3(CC2)c2nccn2CCN3C)c1 | 607 |
| O=C1CC(c2noc(-c3ccccc3Cl)n2)CN1c1ccc(F)cc1 (configuration not stated) | 964 |
| CCCNC(=O)N1CCCN(S(C)(=O)=O)CC1 | 582 |
| O=C1CC(c2nc(-c3cccc(Cl)c3)no2)CN1c1ccc2c(c1)OCO2 (configuration not stated) | 1030 |
| CC(C)c1ccc(C(=O)Nc2nc3ccccc3[nH]2)cc1 | 672 |
| O=C(NCCc1c[nH]c2ccccc12)C(=O)Nc1ccc2c(c1)OCCO2 | 825 |
| NC(=O)Cc1ccc2c(c1)[nH]c1ccccc12 | 756 |
| COc1ccc(CNCCSc2nnnn2C)c(OC)c1 | 598 |
| Cc1cccc(-c2nnc(-c3cc(S(=O)(=O)N4CCOCC4)ccc3F)o2)c1 | 961 |
| CCc1ccccc1S(=O)(=O)N1CCC(n2cnnc2CC)CC1 | 595 |
| COC(=O)c1ccsc1NC(=O)c1cc(-c2ccccc2)on1 | 1170 |
| O=C(Nc1nnc(C2CC(=O)N(c3ccccc3)C2)o1)c1cccc(F)c1 (configuration not stated) | 711 |
| COc1ccccc1NC(=O)N1CCC(c2nnc(-c3ccccc3OC)s2)CC1 | 825 |
| Cc1cc2c(=O)n(CC(=O)Nc3ccc(Cl)cc3)ccc2s1 | 852 |
| COC(=O)C1=CN(c2cccc(C(F)(F)F)c2)c2ccccc2S1(=O)=O | 900 |
| CC(C)c1noc(-c2ccnc(-n3cnc(C(=O)NCc4ccccc4)c3)c2)n1 | 939 |
| CC(C)(C)C(=O)Nc1nc(CC(=O)NCCC2=CCCCC2)cs1 | 814 |
| Cc1ccccc1-c1noc(CCn2nc(-c3ccccc3)ccc2=O)n1 | 1000 |
| O=C1CCCc2c1cc(C(=O)NCc1ccccn1)c(=O)n2-c1ccc(F)cc1 | 630 |
| COc1cccc(Nc2n[nH]nc2C(=O)Nc2ccccc2Br)c1 | 1060 |
| CCc1ccc(OCC(=O)Nc2nnc(SCc3nnc(-c4ccccc4C)o3)s2)cc1 | 1070 |
| Cc1cc(C(=O)Nc2ccc(Cl)cc2)n(CC(=O)Nc2ccc(F)cc2)n1 | 946 |

| SMILES | RP-LC retention time [s] |
| --- | --- |
| COc1ccc2c(c1)-c1nc(NC(=O)c3ccc(Cl)cc3)sc1CC2 | 1180 |
| O=S(=O)(c1ccc2nncn2c1)N(Cc1ccc(F)cc1)c1cccc(F)c1 | 861 |
| Clc1ccc(Nc2c(-c3cccc(Cl)c3)nc3ccc(Cl)cn23)cc1 | 1140 |
| CCc1ccc(-c2noc(CN3C(=O)COc4cc(Cl)ccc43)n2)cc1 | 1240 |
| CCOC(=O)c1noc2ncnc(NC3CCCc4ccccc43)c12 (configuration not stated) | 1120 |
| COCCNc1nnc(-c2nc(-c3ccc(F)cc3)no2)c2ccccc12 | 801 |
| Cc1ccc(-c2ncccc2CNS(=O)(=O)c2ccc(F)c(C)c2)cc1 | 743 |
| CC(C)(C)c1ccc(C(=O)Nc2cnc(N3CCOCC3)nc2)cc1 | 923 |
| Cc1ccc(NC(=O)NC2CCN(c3ccccc3)C2=O)cc1Cl (configuration not stated) | 915 |
| Cc1ccc(Cl)cc1S(=O)(=O)NCC(=O)N1CCOC(c2ccccc2)C1 (configuration not stated) | 910 |
| Cc1nnc2c(=O)n(CC(=O)NCc3ccccc3C(F)(F)F)c3cccnc3n12 | 734 |
| Cc1nnc2ccc(S(=O)(=O)N(Cc3ccccc3)c3cc(F)cc(F)c3)cn12 | 899 |
| Cc1ccc(CNC(=O)C2(C)Oc3cccnc3N(C(C)C)C2=O)cc1 (configuration not stated) | 982 |
| COc1ccc(C(O)CN2CCN(c3ccc(OC)cc3)CC2)cc1 (configuration not stated) | 647 |
| CCCN(C)c1nccn2c(=O)n(CC(=O)Nc3cccc(Cl)c3)nc12 | 724 |
| O=C(Nc1ccccc1Cl)C1=Cc2ccccc2OC1 | 975 |
| CCCC(=O)NCCc1csc(-c2ccc(Cl)cc2)n1 | 921 |
| Cc1ccc(-c2c(C#N)c(N)nc(SCC(=O)NCc3ccccc3)c2C#N)cc1 | 844 |
| COc1ccc(N2CC(c3noc(-c4ccc(F)cc4)n3)CC2=O)cc1 (configuration not stated) | 926 |
| O=C(Cn1cc(-c2nnco2)c2ccccc21)NCc1ccccc1F | 755 |
| O=C(Nc1ccc2c(c1)OCO2)N1CCN(Cc2ccccc2)c2ncccc21 | 732 |

Further lines, results first:

| RP-LC retention time [s] | SMILES |
| --- | --- |
| 591 | CCOC(=O)C1CCc2sc(NC(=O)CNC(=O)c3ccc(=O)[nH]c3)nc21 (configuration not stated) |
| 568 | Cc1ccsc1CN1CCc2[nH]nc(C(=O)N3CCOCC3)c2C1 |
| 804 | CCc1noc(NC(C)=O)c1-c1ccc(OC)c(S(=O)(=O)NC2CCCCC2)c1 |
| 860 | CCC(=O)N1CCc2cc(S(=O)(=O)CCC(=O)NC3CCCc4ccccc43)ccc21 (configuration not stated) |
| 813 | O=C(C1CCCO1)N1CCc2ccc(NS(=O)(=O)c3ccc(F)c(Cl)c3)cc21 (configuration not stated) |
| 884 | COc1ccc(C)cc1NC(=O)N1CCC2(CC1)NC(=O)c1ccc(Cl)cc1N2C |
| 1050 | CC(=O)C1=C(C)N(CC2CCCO2)C(=O)C1(NC(=O)c1ccc(C(C)(C)C)cc1)C(F)(F)F (configuration not stated) |
| 1010 | CN1c2cc(Cl)ccc2C(=O)NC12CCN(C(=O)NCc1cccc(F)c1)CC2 |
| 776 | Cc1ccc(CN2CCN(C3CCN(C(=O)Nc4ccc(F)cc4)CC3)C(=O)C2=O)cc1 |
| 594 | CC(=O)N1CCC(CC(=O)N(C)CC2(C)CCOCC2)CC1 |
| 844 | O=C(Nc1ccc2c(c1)CN(S(=O)(=O)Cc1ccccc1)CCO2)C1CC1 |
| 666 | CCc1ccccc1NC(=O)Cn1c(CC)nc2c(c1=O)CN(Cc1ccccc1)CC2 |
| 675 | CCc1nnc(NC(=O)C2CCN(C(=O)c3ccccc3F)CC2)s1 |
| 649 | O=C(Nc1ccc(Cl)cc1F)NC1CCN(c2cc(N3CCOCC3)cnn2)C1 (configuration not stated) |
| 683 | Cc1cc(C(=O)N2CCOCC2)nn1CC(=O)Nc1nc2ccccc2s1 |
| 906 | CCOC(=O)C1CCN(c2cc3c(cc2NC(=O)C2CCCCC2)n(C)c(=O)c(=O)n3C)CC1 |
| 1130 | COC(=O)c1cc(C2CC2)nc2c1c(=O)n(Cc1ccccc1Cl)c(=O)n2C |
| 828 | Cc1ccc(NS(=O)(=O)c2cc3c(s2)CCN(C(=O)C2CC2)C3)c(F)c1 |
| 620 | Cc1c(C2CCN(C(=O)c3ccco3)CC2)noc1N |
| 1050 | CCn1cc(-c2nc(-c3cccc(Br)c3)no2)c(=O)c2cc(F)c(N3CCOCC3)cc21 |
| 1240 | CCOC(=O)C1CCC(CNC(=O)Nc2ccc(-c3nc(-c4ccc(C)cc4C)co3)cc2)CC1 (configuration not stated) |
| 748 | CCNC(=O)C1CCCN(C(=O)Nc2ccc(NC(=O)Nc3ccc(C)c(C)c3)cc2)C1 (configuration not stated) |
| 608 | CCc1ccccc1NC(=O)Cn1ncc2c(N3CCN(c4ccccn4)CC3)ncnc21 |
| 732 | CCCC(=O)Nc1ccc2nc(N3CCN(c4cccc(C)c4C)CC3)cc(C(=O)O)c2c1 |
